Test system: primary human hepatocytes (PHHs)
Test: Primary human hepatocyte metabolism and protein production on the substrates
Format: cell-based
Conditions: female PHHs, ELISA
Protocol: Cryoplateable human hepatocytes were plated and maintained according to the instructions of vendor Life Technologies. Briefly, cryoplateable hepatocytes were resuscitated in thawing medium (Life Technologies, catalog no. CM3000) and plated onto the pre-coated 96 well plates. Cells-attached to all matrices efficiently and were maintained in an incubator set at 37 degrees Celsius and CO2 levels set to 5%. At 24 hours post-plating, the medium was changed to an incubation medium (catalog no. CM4000).
To determine whether these large changes in metabolic capacity correlated to increased protein production, the production of albumin and alpha fetoprotein (AFP) from hESC-derived and cryoplatable hepatocytes was quantified using commercially available enzyme-linked immunosorbent assay (ELISA) kits. The different media were collected at denoted time points during hESC differentiation, days 20-26. […] Samples were run in triplicate and measured on a FLUOStar Omega multi-mode microplate reader. Protein production was expressed as ng or μg of protein per milliliter of media, per milligram of protein. The results are shown in FIG. 7, where the expression of these two proteins was measured on days 20, 22, 24, and 26 of differentiation. Despite the large changes in metabolic capacity, no significant differences in albumin or AFP secretion was detected by ELISA. […]

In the case of “LN-521: substrate coated with 5 μg/cm^2 of laminin-521, the protein formed by joining α5, β2 and γ1 chains”, the albumin production is reported as “enhanced”.

From patent publication US10683486B2, “Methods for producing hepatocytes” (BioLamina AB, priority 2015, dated 2020)
